The values below come from US20260109707A1, “HETEROBIFUNCTIONAL COMPOUNDS AND METHODS OF TREATING DISEASE” (Halda Therapeutics OpCo. Inc., priority 2022, published 2026).

The test system of one experiment is VCaP cells. Nature of the experiment: Cellular growth inhibition assay for VCaP cells (CellTiter-Glo, 72 hours). It counts as cell-based, human. To be noted: Homo sapiens, VCaP, 72 h. In outline:
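Luminescent viability signal after 72 h of compound exposure gave GI50 values by four-parameter nonlinear regression. Compounds were added in 0.5% DMSO to cells plated 24 h earlier at 5000/well in DMEM containing 10% FBS.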

A further experiment has as its target T1, androgen receptor (Homo sapiens, UniProt P10275).
T1 sequence (P10275 1-920 T878A): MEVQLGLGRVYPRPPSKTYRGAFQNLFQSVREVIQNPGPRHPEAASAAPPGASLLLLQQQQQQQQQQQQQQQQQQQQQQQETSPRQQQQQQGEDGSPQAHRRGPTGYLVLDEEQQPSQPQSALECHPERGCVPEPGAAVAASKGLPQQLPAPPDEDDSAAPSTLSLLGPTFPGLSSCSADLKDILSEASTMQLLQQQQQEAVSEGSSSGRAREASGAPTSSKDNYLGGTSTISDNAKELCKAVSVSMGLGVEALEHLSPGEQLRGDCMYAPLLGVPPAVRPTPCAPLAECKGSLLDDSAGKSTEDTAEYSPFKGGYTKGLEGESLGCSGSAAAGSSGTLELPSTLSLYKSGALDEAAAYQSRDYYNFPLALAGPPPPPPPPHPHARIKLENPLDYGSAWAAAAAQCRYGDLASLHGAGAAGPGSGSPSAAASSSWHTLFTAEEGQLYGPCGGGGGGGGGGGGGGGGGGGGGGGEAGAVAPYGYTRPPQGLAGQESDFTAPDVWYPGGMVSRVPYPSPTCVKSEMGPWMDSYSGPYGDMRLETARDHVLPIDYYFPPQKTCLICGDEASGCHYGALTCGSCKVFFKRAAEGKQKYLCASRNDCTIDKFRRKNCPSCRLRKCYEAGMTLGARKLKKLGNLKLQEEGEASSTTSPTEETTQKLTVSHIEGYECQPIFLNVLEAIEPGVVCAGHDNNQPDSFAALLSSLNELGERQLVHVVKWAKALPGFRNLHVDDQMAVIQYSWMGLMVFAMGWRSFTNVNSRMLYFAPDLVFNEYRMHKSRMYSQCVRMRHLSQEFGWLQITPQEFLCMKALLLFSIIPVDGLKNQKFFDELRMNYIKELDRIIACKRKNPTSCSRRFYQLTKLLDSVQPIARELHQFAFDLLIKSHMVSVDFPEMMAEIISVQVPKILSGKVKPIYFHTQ
Nature of the experiment: Assay for binding affinity to androgen receptor ([3H]methyltrienolone radioligand, cell cytosol). The note with it: binding to the androgen receptor, Table 3. As to the method: Fractions of cell cytosol ([…]) were incubated for 24 hr at 4° C. with 1 nM [^3H]methyltrienolone in the absence or presence of the test compound in a buffer containing 25 mM Hepes-Tris (pH 7.4), 1 mM EDTA, 10 mM Na2MoO4, 2 mM DTT, 5 μM triamcinolone acetonide, and 10% glycerol. Nonspecific binding was determined in the presence of […] testosterone. Following incubation, the samples were filtered rapidly under vacuum through glass fiber filters (GF/B, Packard) presoaked with 0.3% PEI and rinsed several times with ice-cold 50 mM Tris-HCl using a 96-sample cell harvester (Unifilter, Packard). The filters were dried then counted for radioactivity in a scintillation counter (Topcount, Packard) using a scintillation cocktail (Microscint 0, Packard). The results are expressed as a percent inhibition of the control radioligand specific binding. The standard reference compound is testosterone, which is tested in each experiment at several concentrations to obtain a competition curve from which its IC50 is calculated.

The subject of experiment [1] is T-Rex 293 cell line SC3 cells lacking increased expression of androgen receptor protein. Put plainly: Cellular growth inhibition assay, T-Rex 293 SC3 cells without doxycycline (CellTiter-Glo, 72 hours). Format: cell-based. To be noted: 72 h, T-Rex 293 cell line SC3 cells not exposed to doxycycline (lacking increased androgen receptor expression). In short, it runs like this: (§1)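 Doxycycline (10 ng/mL) was either included or omitted to toggle wild-type androgen receptor expression in SC3 cells, a T-Rex 293 clone, grown in stripped-serum, phenol red-free medium. After 72 hours with compound, viable cells were quantified by CellTiter-Glo 2.0.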

The test system of experiment [2] is T-Rex 293 cell line SC3 cells having increased expression of androgen receptor protein due to exposure to doxycycline. Nature of the experiment: Cellular growth inhibition assay, T-Rex 293 SC3 cells with doxycycline (CellTiter-Glo, 72 hours). To be noted: 72 h, T-Rex 293 SC3 cells with increased androgen receptor expression due to doxycycline (10 ng/mL). It counts as cell-based. In short, it runs like this:
as §1

Experiment [3] can be described thus: Cellular growth inhibition assay, T-Rex 293 SC cells with doxycycline (CellTiter-Glo, 72 hours). Format: cell-based. The note with it: T-Rex 293 SC cells with doxycycline (increased progesterone receptor isoform B). As to the method: (§2) The following types of cells were prepared for this experiment: (i) a T-Rex 293 cell line having increased expression of progesterone receptor isoform B protein due to exposure to doxycycline and (ii) a T-Rex 293 cell line lacking increased expression of progesterone receptor isoform B protein. Ability of the test compounds to inhibit proliferation of the foregoing cell types was evaluated according to the procedures set forth below.
(§3) The doxycycline-inducible progesterone receptor isoform B protein expressing cell line was established using the following protocol: T-Rex 293 cells were purchased from Invitrogen (Cat #R71007) and transfected using Lipofectamine 2000 with the wild-type progesterone receptor B protein sequence cloned into the pcDNA4/TO vector. Transfected cells were selected using 400 μg/mL Zeocin (Invitrogen Cat #R25001). Following selection, single clones were raised and maintained in Dulbecco's Modified Eagle Medium (DMEM) supplemented with 10% w/w Tetracycline-free fetal bovine serum (FBS) and 250 μg/mL Zeocin. Clones were analyzed for expression of progesterone receptor isoform B protein in the presence and absence of 10 ng/mL doxycycline (Sigma Cat #D9891), and a single doxycycline-inducible clone (hereinafter “SC”) was selected for use in downstream assays.
(§4) The SC cells were seeded on poly-D-lysine coated, black clear-bottom 384-well plates at 2500/well, in 25 μL Phenol Red Free Dulbecco's Modified Eagle Medium (DMEM) supplemented with 10% w/w charcoal-dextran treated fetal bovine serum (FBS) and 1% w/w pen-strep, with or without 10 ng/mL doxycycline. Pen-Strep is a commercially available mixture of penicillin G and streptomycin, which is used in mammalian cell culture media to prevent bacterial contamination. Phenol Red Free Dulbecco's Modified Eagle Medium (DMEM) supplemented with 10% w/w charcoal-dextran treated fetal bovine serum (FBS) and 1% w/w pen-strep, with or without 10 ng/mL doxycycline is herein referred to as Treatment Medium. Following seeding of cells in the plates, the plates were spun at 300×g for 30 seconds, then equilibrated to room temperature for 30 minutes, and then deposited in a humidified tissue culture incubator maintained at 37° C. with 5% CO2.
(§5) At 24 hours after seeding of the cells, dilutions of test compound were prepared in DMSO and dissolved in Treatment Medium, to achieve a final DMSO concentration of 0.5% w/w, thereby providing the Test Compound Solution. A 25 μL aliquot of the Test Compound Solution was added to cells in the well plates. An equal volume of a solution containing DMSO and Treatment Medium was used as a negative control. Following treatment of cells with Test Compound Solution or said equal volume of a solution containing DMSO and Treatment Medium, the plates were spun at 300×g for 30 seconds, and then left in an incubator for 72 hours.
(§6) At the end of the treatment duration, cell viability was quantified with CellTiter-Glo 2.0 reagent (Promega Cat #G9243). For this purpose, plates were equilibrated to room temperature for 30 minutes, and then 25 μL of CellTiter-Glo 2.0 reagent was added to cells in the plate wells. Plates were then agitated on a shaker for two minutes at 500 rpm and subsequently incubated at room temperature for 10 minutes. Following incubation, the plates were spun at 3000×g for 30 seconds, then sealed with an optical adhesive cover, and luminescence readings were measured with an EnVision Plate Reader (Perkin Elmer).
(§7) Data was normalized using zero luminescence for baseline. A four-parameter non-linear regression curve fit was applied to dose-response data in GraphPad Prism data analysis software to determine the half-maximal growth inhibitory concentration (GI50) for each test compound.

Experiment [4] deals with T-Rex 293 cell line SC cells lacking increased expression of progesterone receptor isoform B protein. Put plainly: Cellular growth inhibition assay, T-Rex 293 SC cells without doxycycline (CellTiter-Glo, 72 hours). Format: cell-based. To be noted: T-Rex 293 SC cells not exposed to doxycycline. As to the method: as §2, §3, §4, §5, §6, §7
The subject of the next experiment is T47D cells. Put plainly: Cellular growth inhibition assay for T47D cells (CellTiter-Glo, 72 hours). Format: cell-based, human. To be noted: Homo sapiens, T47D, 72 h, 72 hours treatment. In outline: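 Growth inhibition as GI50, fitted with four parameters to CellTiter-Glo luminescence after 72 h of compound exposure (0.5% DMSO). Cells were T47D, grown in insulin-supplemented (0.2 units/mL) DMEM with 10% FBS and treated one day post-seeding.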

Regarding `CCNC(=O)C[C@@H]1N=C(c2ccc(OCCOCCOCCOC3CCN(c4ccc(C(=O)N[C@H]5CC[C@H](Oc6ccc(C#N)c(Cl)c6)CC5)nn4)CC3)cc2)c2c(sc(C)c2C)-n2c(C)nnc21` [I-9], the GI50 in the experiment on VCaP cells is less than 500 nM; in experiment [1], 500 to 1500 nM; in experiment [2], less than 500 nM. The Kd at androgen receptor was less than 50 nM.

Regarding `CCNC(=O)C[C@@H]1N=C(c2ccc(N3CCC(N(C)C4CN(c5ccc(C(=O)N[C@H]6CC[C@H](Oc7ccc(C#N)c(Cl)c7)CC6)nn5)C4)CC3)cc2)c2c(sc(C)c2C)-n2c(C)nnc21` [I-63], the GI50 in the experiment on VCaP cells was less than 500 nM; in experiment [1], 500 to 1500 nM; in experiment [2] it was less than 500 nM. Also, the Kd on androgen receptor was less than 50 nM.

Consider `CCNC(=O)C[C@@H]1N=C(c2ccc(N3CCC(CN4CC(N(C)c5ccc(C(=O)N[C@H]6CC[C@H](Oc7ccc(C#N)c(Cl)c7)CC6)nn5)C4)CC3)cc2)c2c(sc(C)c2C)-n2c(C)nnc21` [I-68], for which the 50% growth inhibitory concentration (GI50) in the experiment with VCaP cells is 500 to 1500 nM; in experiment [1], more than 3000 nM; in experiment [2] it was more than 3000 nM. In addition, the Kd at androgen receptor lay within 50 to 500 nM.

`Cc1sc2c(c1C)C(c1ccc(C3C[C@@H]3CC3CCCN(c4ccc(C(=O)N[C@H]5CC[C@H](Oc6ccc(C#N)c(Cl)c6)CC5)nn4)C3)cc1)=N[C@@H](Cc1ncco1)c1nnc(C)n1-2` (stereo partly drawn) [I-203]: the GI50 in experiment [3] was 500 to 1500 nM; in the experiment with VCaP cells it was 1500 to 3000 nM; in experiment [4], 500 to 1500 nM; in experiment [1] it was 500 to 1500 nM; in experiment [2], less than 500 nM; with T47D cells, more than 3000 nM.

As to `Cc1sc2c(c1C)C(c1ccc(C3C[C@H]3CC3CCCN(c4ccc(C(=O)N[C@H]5CC[C@H](Oc6ccc(C#N)c(Cl)c6)CC5)nn4)C3)cc1)=N[C@@H](Cc1ncco1)c1nnc(C)n1-2` (stereo partly drawn) [I-204], the 50% growth inhibitory concentration (GI50) (in experiment [3]; in the experiment on VCaP cells; in experiment [4]; in experiment [1]; in experiment [2]; in the experiment on T47D cells) was less than 500 nM in each case.

For `Cc1sc2c(c1C)C(c1ccc(C3CC3CC3CCCN(c4ccc(C(=O)N[C@H]5CC[C@H](Oc6ccc(C#N)c(Cl)c6)CC5)nn4)C3)cc1)=N[C@@H](Cc1ncco1)c1nnc(C)n1-2` (stereo partly drawn) [I-205], the GI50 (in experiment [3]; with VCaP cells; in experiment [4]; in experiment [1]; in experiment [2]; with T47D cells) was less than 500 nM throughout.

Regarding `Cc1sc2c(c1C)C(c1ccc(CCC3CC4(CCCN(c5ccc(C(=O)N[C@H]6CC[C@H](Oc7ccc(C#N)c(Cl)c7)CC6)nn5)C4)C3)cc1)=N[C@@H](Cc1ncco1)c1nnc(C)n1-2` (stereo partly drawn) [I-208], the GI50 (in experiment [3]; in the experiment with VCaP cells; in experiment [4]; in experiment [1]; in experiment [2]; with T47D cells) was less than 500 nM throughout.
